Experimental data as given in US20090275626A1, “PHARMACEUTICAL COMPOSITION FOR PREVENTION OR TREATMENT OF NEUROGENIC PAIN” (KISSEI PHARMACEUTICAL CO., LTD., priority 2005, published 2009).
Entries after “also recorded” stand apart in the source; their conditions may differ.

Key:
Format in all cases: in vivo, rat
Seltzer model rats = test: Nociceptive threshold in Seltzer model rats (Test Example 3, Randall-Selitto method); settings: for nociceptive threshold of the nerve ligation group: 1 hour after final administration; for analgesic effect compared with carbamazepine: Compounds 1, 2: 1 mg/kg s.c., Compound 3 hydrochloride: 10 mg/kg oral, carbamazepine 10 mg/kg oral, 2 weeks
Source text: Fifty-eight, 7-week old male SD rats were anesthetized with pentobarbital (Nembutal injection (a registered trademark)), and the right sciatic nerve was exposed. In the nerve ligation group (48 rats), half of the dorsal portion of the nerve was ligated using 6-0 nylon suture. In Normal group (10 rats), the sciatic nerve was only exposed. From the following day of the model preparation, each test article (Compound 1, Compound 2 or Compound 3 hydrochloride) was repeatedly administered once a day for 2 weeks. Compound 1 (10 rats) and Compound 2 (10 rats) were administered subcutaneously, and Compound 3 hydrochloride (9 rats) and carbamazepine (10 rats) were administered orally. Control group (9 rats) and Normal group were subcutaneously administered physiological saline. One hour after the final administration of the test articles, the nociceptive threshold against pressure stimulation given to the right hind-paw of rats was measured by Randall-Selitto method, and compared with Control group.

[1] = system: STZ-induced diabetic rats; test: Nociceptive threshold in STZ-induced diabetic rats, repeated subcutaneous administration over 10 weeks (Test Example 2, Randall-Selitto method); settings: for nociceptive threshold after 14-day repeated administration: 0.1, 0.3 and 1 mg/kg subcutaneous once a day, right hind-paw pressure, vs Control group; for neuroprotective effects: concluded from controlled changes of nociceptive threshold over 10 weeks (early hyperalgesia, late hypoalgesia); for changes of the nociceptive threshold over 10 weeks after STZ administration (repeated-measures analysis of variance vs Control group): subcutaneous once a day, measured every 2 weeks until 10th week, P<0.05
Method: STZ (50 mg/kg) was administered intravenously to male SD stain rats to induce diabetes mellitus. From the following day of the STZ administration, test article (Compound 1 or 2) was administered subcutaneously once a day, repeatedly. Normal and Control groups were administered subcutaneously physiological saline (9-10 rats in each group). Before the STZ administration and every 2 weeks until the 10th week after STZ administration, the nociceptive threshold against pressure stimulation given to the right hind-paw of rats was measured by Randall-Selitto method, and compared with Control group.
The changes of the nociceptive thresholds (mean±SE) in each group over 10 weeks after administration of each drug are shown in FIG. 2 and FIG. 3.

[2] = system: STZ-induced diabetic rats; test: Nociceptive threshold in STZ-induced diabetic rats, repeated oral administration (Test Example 1, Randall-Selitto method); settings: Compound 3 hydrochloride 10 mg/kg oral twice a day, 14-day repeated administration, 1 hour after final administration, right hind-paw pressure, vs Control group
Method: STZ (50 mg/kg) was administered intravenously to 7-week old male SD stain rats to induce diabetes mellitus. From the following day of the STZ administration, test article (Compound 3 hydrochloride) was administered orally twice a day, repeatedly (10 rats in each group). Normal and Control groups were administered the medium (0.5% methylcellulose). The nociceptive threshold against pressure stimulation given to the right hind-paw of rats after 2 weeks administration (1 hour after the final administration) of test article was measured by Randall-Selitto method, and compared with Control group.

[3] = 1 mg/kg subcutaneous once a day for 2 weeks
[4] = 10 mg/kg oral once a day for 2 weeks

SMILES	nociceptive threshold of the nerve ligation group (Seltzer model rats; [3])	analgesic effect compared with carbamazepine (Seltzer model rats)	nociceptive threshold after 14-day repeated administration [1]	neuroprotective effects [1]	changes of the nociceptive threshold over 10 weeks after STZ administration (repeated-measures analysis of variance vs Control group) ([1]; sodium salt)	changes of the nociceptive threshold over 10 weeks after STZ administration (repeated-measures analysis of variance vs Control group) ([1]; disodium salt)	nociceptive threshold of the nerve ligation group (Seltzer model rats; [4])	nociceptive threshold [2]
C[C@H](Cc1ccc(OCC(=O)[O-])cc1)NC[C@H](O)c1cccc(Cl)c1.[Na+] [Compound 1]	significantly improved	comparable to that of carbamazepine	increased clearly in a dose-dependent manner at 0.3 mg/kg or above	have neuroprotective effects	significant differences in comparison with Control group; also recorded: significant difference	–	–	–
C[C@H](Cc1ccc2c(c1)OC(C(=O)[O-])(C(=O)[O-])O2)NC[C@H](O)c1cccc(Cl)c1.[Na+].[Na+] [Compound 2]	significantly improved	comparable to that of carbamazepine	increased clearly in a dose-dependent manner at 0.3 mg/kg or above	have neuroprotective effects	–	significant differences in comparison with Control group; also recorded: significant difference	–	–
NC(=O)N1c2ccccc2C=Cc2ccccc21 [carbamazepine, reference compound]	–	–	–	–	–	–	analgesic effect	–
Cc1cc(-c2ccc(C(=O)O)c(C(C)C)c2)cc(C)c1OCCN[C@@H](C)[C@H](O)c1ccc(O)cc1 [Compound 3, 4′-[2-[(1S,2R)-2-hydroxy-2-(4-hydroxyphenyl)-1-methylethylamino]ethoxy]-3-isopropyl-3′,5′-dimethylbiphenyl-4-carboxylic acid]	–	comparable to that of carbamazepine	–	–	–	–	significantly improved	increased remarkably
